Source: patent US8202893B2, “Cannabinergic lipid ligands” (University of Connecticut, priority 2004, dated 2012)
Read-outs that look alike come from different tables or passages of the source.

What was measured:
[1] = biological target: T1, FAAH (fatty acid amide hydrolase) (Rattus norvegicus, UniProt P97612); experiment: FAAH screening: inhibition of anandamide metabolism to arachidonic acid; assay type: biochemical; conditions: 25 nmoles compound with 25 nmoles AEA, 75 μg enzyme, 250 μL, 15 min
T1 construct: Anandamide Amidase Activity in Rat Brain Microsomes; from tissue; host or cells: rat brain microsomes (by the cited procedure)
T1 sequence (P97612 1-579): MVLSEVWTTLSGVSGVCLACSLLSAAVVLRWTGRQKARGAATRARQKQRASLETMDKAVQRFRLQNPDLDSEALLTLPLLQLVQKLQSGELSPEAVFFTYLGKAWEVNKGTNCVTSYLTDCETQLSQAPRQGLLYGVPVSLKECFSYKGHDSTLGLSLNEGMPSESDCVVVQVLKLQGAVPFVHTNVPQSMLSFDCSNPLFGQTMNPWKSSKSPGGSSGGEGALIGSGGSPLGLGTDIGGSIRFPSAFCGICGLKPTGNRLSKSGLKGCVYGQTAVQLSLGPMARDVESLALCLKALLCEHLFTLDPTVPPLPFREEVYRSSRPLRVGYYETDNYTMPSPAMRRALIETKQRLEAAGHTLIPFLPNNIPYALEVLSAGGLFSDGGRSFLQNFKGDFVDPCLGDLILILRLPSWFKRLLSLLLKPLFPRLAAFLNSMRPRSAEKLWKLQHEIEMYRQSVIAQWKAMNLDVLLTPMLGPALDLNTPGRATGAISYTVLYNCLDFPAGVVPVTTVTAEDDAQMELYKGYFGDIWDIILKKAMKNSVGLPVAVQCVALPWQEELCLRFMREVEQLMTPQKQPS
Protocol: The FAAH (fatty acid amide hydrolase) enzyme preparation was obtained according to the procedure of Lang and Makriyannis et al High Performance Liquid Chromatographic Determination of Anandamide Amidase Activity in Rat Brain Microsomes, Analytical Biochemistry (238): 40-45, 1996.
All compound solutions were made to a concentration of 10 mM in DMSO. Three tests were performed on each compound: hydrolysis, to determine the stability of the compound in assay conditions without the enzyme present; metabolism, to determine the stability of the compound with the enzyme present; and inhibition of anandamide (native substrate) metabolism to arachidonic acid.
Again the reaction mixture was treated in the same manner as described above and the concentrations of AEA and AA were calculated using external standards. Percent inhibition was calculated using the following equation: % Inhib.=(AA15-AA0)i/(AA15-AA0)s where (AA15-AA0)c is the amount of arachidonic acid formed over 15 minutes from AEA with the inhibitor present and (AA15-AA0)s is the amount of arachidonic acid formed over 15 minutes from AEA when the inhibitor is not present. […] The reaction mixtures were treated as described above and the amount of AA formed was calculated. The software package GraphPad Prism was utilized to calculate IC50 and Ki. HPLC Conditions:
Chromatographic separation was achieved using an Ultrasphere ODS Pre-column (4.6×45 mm) from Beckman. Hardware consisted of a Waters Millennium HPLC system with a 20 μL injection loop. The mobile phase consisted of 8.5% o-phosphoric acid:acetonitrile (3:7), run isocratically at a rate of 1 mL/min and detection at 204 nm. The total run time was 8 minutes with AEA eluting at 2.2 minutes and AA at 6.0 minutes.

[2] = biological target: T2, CB1 cannabinoid receptor (Rattus norvegicus, UniProt P20272); experiment: CB1 receptor binding, [3H]CP-55,940 displacement; conditions: rat forebrain membranes
T2 construct: membranes were prepared from rat forebrain membranes; from tissue; host or cells: rat forebrain
T2 sequence (P20272 whole entry): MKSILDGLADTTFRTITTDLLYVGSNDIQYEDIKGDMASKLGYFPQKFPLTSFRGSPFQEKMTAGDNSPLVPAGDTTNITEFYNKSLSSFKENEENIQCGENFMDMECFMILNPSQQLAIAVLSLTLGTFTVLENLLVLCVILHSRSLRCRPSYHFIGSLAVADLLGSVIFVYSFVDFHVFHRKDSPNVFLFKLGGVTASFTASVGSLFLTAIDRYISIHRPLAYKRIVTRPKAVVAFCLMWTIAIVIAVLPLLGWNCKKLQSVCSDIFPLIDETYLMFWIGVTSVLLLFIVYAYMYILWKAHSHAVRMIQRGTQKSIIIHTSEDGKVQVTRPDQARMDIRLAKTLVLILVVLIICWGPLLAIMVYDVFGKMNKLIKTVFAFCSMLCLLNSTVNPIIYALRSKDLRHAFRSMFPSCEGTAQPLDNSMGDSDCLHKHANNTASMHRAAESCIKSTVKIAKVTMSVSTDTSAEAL
Protocol: Some inventive analogs were tested for CB2 receptor binding affinity and for CB1 receptor affinity (to determine selectivity). […] The lower the Ki value, the higher the binding affinity. […] For the CB1 receptor binding studies, membranes were prepared from rat forebrain membranes according to the procedure of P. R. Dodd et al, A Rapid Method for Preparing Synaptosomes: Comparison with Alternative Procedures, Brain Res., 107-118 (1981). The binding of the novel analogues to the CB1 cannabinoid receptor was assessed as described in W. A. Devane et al, Determination and Characterization of a Cannabinoid Receptor in a Rat Brain, Mol. Pharmacol., 34, 605-613 (1988) and A. Charalambous et al, 5′-azido Δ^8-THC: A Novel Photoaffinity Label for the Cannabinoid Receptor, J. Med. Chem., 35, 3076-3079 (1992) with the following changes. The above articles are incorporated by reference herein.
Membranes, previously frozen at −80° C., were thawed on ice. To the stirred suspension was added three volumes of TME (25 mM Tris-HCl buffer, 5 mM MgCl2 and 1 mM EDTA) at a pH 7.4. The suspension was incubated at 4° C. for 30 min. At the end of the incubation, the membranes were pelleted and washed three times with TME.
(§1) The treated membranes were subsequently used in the binding assay described below. Approximately 30 μg of membranes were incubated in silanized 96-well microtiter plate with TME containing 0.1% essentially fatty acid-free bovine serum albumin (BSA), 0.8 nM [^3H] CP-55,940, and various concentrations of test materials in a final volume of 200 μL. The assays were incubated for 1 hour at 30° C. and then immediately filtered using Packard Filtermate 196 harvester and Whatman GF/C filterplates and washed with wash buffer (TME) containing 0.5% BSA. Radioactivity was detected using MicroScint 20 scintillation cocktail added directly to the dried filterplates, and the filterplates were counted using a Packard Instruments Top-Count. Nonspecific binding was assessed using 100 nM CP-55,940. Data collected from three independent experiments performed with duplicate determinations was normalized between 100% and 0% specific binding for [^3H] CP-55,940, determined using buffer and 100 nM CP-55,940. The normalized data was analyzed using a 4-parameter nonlinear logistic equation to yield IC50 values.

[3] = biological target: T3, CB2 receptor (Mus musculus, UniProt P47936); experiment: CB2 receptor binding, [3H]CP-55,940 displacement; conditions: mouse spleen membranes
T3 construct: membranes were prepared from frozen mouse spleen; from tissue; host or cells: mouse spleen
T3 sequence (P47936 whole entry): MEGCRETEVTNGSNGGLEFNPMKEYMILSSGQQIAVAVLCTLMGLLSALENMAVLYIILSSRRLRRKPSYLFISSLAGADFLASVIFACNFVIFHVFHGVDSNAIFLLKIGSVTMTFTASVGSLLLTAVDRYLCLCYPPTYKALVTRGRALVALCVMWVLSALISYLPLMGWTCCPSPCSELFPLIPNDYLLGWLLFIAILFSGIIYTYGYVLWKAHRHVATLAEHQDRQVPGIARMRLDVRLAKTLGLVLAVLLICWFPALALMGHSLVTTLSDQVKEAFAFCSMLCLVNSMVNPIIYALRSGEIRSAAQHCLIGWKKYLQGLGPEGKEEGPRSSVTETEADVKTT
Protocol: as §1
For the CB2 receptor binding studies, membranes were prepared from frozen mouse spleen essentially according to the procedure of P. R. Dodd et al, A Rapid Method for Preparing Synaptosomes: Comparison with Alternative Procedures, Brain Res., 226, 107-118 (1981) which is incorporated by reference herein. Silanized centrifuge tubes were used throughout to minimize receptor loss due to adsorption. The CB2 binding assay was conducted in the same manner as for the CB1 binding assay. The binding affinities (Ki) were also expressed in nanomoles (nM).

[4] = with PMSF (second value of cell), read-out: Ki CB1 (nM) (o/w PMSFQ)
[5] = without PMSF (first value of cell), read-out: Ki CB1 (nM) (o/w PMSFQ)
[6] = with PMSF (second value of cell), read-out: Ki CB1 (nM) (o/w PMSF)
[7] = without PMSF (first value of cell), read-out: Ki CB1 (nM) (o/w PMSF)

Row | SMILES | FAAH % Inhibition [1] | Ki [2, 4] | Ki [2, 5] | Ki [3] | Ki [2, 6] | Ki [2, 7]
1 | O=C(CCC/C=C\C/C=C\C/C=C\C/C=C\CCCCc1ccccc1)NCC1CC1 [Compound A1] | 23% | 153 nM | 94.6 nM | 177 nM |  | 
2 | O=C(CCC/C=C\C/C=C\C/C=C\C/C=C\CCc1ccccc1)NCC1CC1 [Compound A2] | 32% | 129 nM | 729 nM | 171 nM |  | 
3 | O=C(CCC/C=C\C/C=C\C/C=C\C/C=C\CCc1ccccc1)Nc1ccc(O)cc1 [Compound A3] | 34% | 58.6 nM | 183 nM | 83.3 nM |  | 
4 | O=C(CCC/C=C\C/C=C\C/C=C\C/C=C\CCc1ccccc1)Nc1nccs1 [Compound A4] | 58% | 84.3 nM | 1180 nM | 1230 nM |  | 
5 | [N-]=[N+]=NCCCC/C=C\C/C=C\C/C=C\C/C=C\CCCC(=O)NCC1CC1 [Compound A6] | 11% | 114 nM | 195 nM | 426 nM |  | 
6 | COc1cc(CNC(=O)CCC/C=C\C/C=C\C/C=C\C/C=C\CCCCN=[N+]=[N-])ccc1O [Compound A7] | 46% | 80.5 nM | 165 nM | 302 nM |  | 
7 | COc1cc(CNC(=O)CCC/C=C\C/C=C\C/C=C\C/C=C\CCCCN=C=S)ccc1O [Compound A12] | 39% | 136 nM | 193 nM | 553 nM |  | 
8 | O=C(CCC/C=C\C/C=C\C/C=C\C/C=C\CCCCCBr)NC1CC1 [Compound A18] | 72% | 0.16 nM | 25.1 nM | 12.3 nM |  | 
9 | CCCCCC=CCC=CCC=CCC=CCCCCOC(=O)NCC(C)O (stereo not drawn) [Compound B3] | 10% |  |  | 597 nM | 396 nM | 526 nM
10 | CCCCC/C=C\C/C=C\C/C=C\C/C=C\CCCCNC(=O)NC[C@H](C)O [Compound B12] | 17.2% |  |  | 242 nM | 126 nM | 380 nM
11 | CCCCC/C=C\C/C=C\CCCCCCCCOC(=O)NC[C@H](C)O [Compound B14] | 1.20% |  |  | 2250 nM | 405 nM | 1350 nM
12 | CC/C=C\C/C=C\C/C=C\CCCCCCCCOC(=O)NC[C@H](C)O [Compound B15] | 6.96% |  |  | 422 nM | 481 nM | 622 nM
